{
  "source": "patent US20130212744A1",
  "about": "“METHOD OF REDUCING INSECT-VECTORED VIRAL INFECTIONS” (priority 2010, published 2013)",
  "tested_on": "whitefly Bemisia tabaci adults",
  "assay": "Soil use (drench) field trial on tomato, efficacy on whitefly adults",
  "type": "in vivo",
  "conditions": "for Emax at 12.5 g/ha: 12.5 g ai/ha; for Emax at 25 g/ha: 25 g ai/ha; for Emax at 100 g/ha: 100 g ai/ha; for Emax at 150 g/ha: 150 g ai/ha",
  "description": "Two soil applied studies were carried out in Elhasanya, Egypt in 2009 on tomato plants with the main goal to measure efficacy on the whitefly Bemisia tabaci. The plot size was 4.8 m^2 and 6 replicates were used in the trial. Products were applied once on young tomato plants at BBCH stage 14 as a drench. The spray volume was at the first application 350 l/ha. The evaluation of this study was done counting the adult whiteflies (Bemisia tabaci) as well as the nymphs and the eggs in each plot. In addition to the direct whitefly effect, visual symptoms of the virus, mainly TYLCV (tomato yellow leaf curl virus) were evaluated also.",
  "data": [
    {"smiles": "CSC(=O)c1cccc2nnsc12", "note": "[ASM, S-methyl benzo[1,2,3]thiadiazole-7-carbothioate]", "values": [
      {"measurement": "Emax at 12.5 g/ha", "setting": "120 h, 5DAA, Trial 1", "result": 40, "unit": "%"},
      {"measurement": "Emax at 12.5 g/ha", "setting": "120 h, 5DAA, Trial 2", "result": 29, "unit": "%"},
      {"measurement": "Emax at 25 g/ha", "setting": "120 h, 5DAA, Trial 1", "result": 50, "unit": "%"},
      {"measurement": "Emax at 25 g/ha", "setting": "120 h, 5DAA, Trial 2", "result": 36, "unit": "%"},
      {"measurement": "Emax at 12.5 g/ha", "setting": "240 h, 10DAA, Trial 1", "result": 41, "unit": "%"},
      {"measurement": "Emax at 12.5 g/ha", "setting": "240 h, 10DAA, Trial 2", "result": 34, "unit": "%"},
      {"measurement": "Emax at 25 g/ha", "setting": "240 h, 10DAA, Trial 1", "result": 44, "unit": "%"},
      {"measurement": "Emax at 25 g/ha", "setting": "240 h, 10DAA, Trial 2", "result": 45, "unit": "%"},
      {"measurement": "Emax at 12.5 g/ha", "setting": "360 h, 15DAA, Trial 1", "result": 58, "unit": "%"},
      {"measurement": "Emax at 12.5 g/ha", "setting": "360 h, 15DAA, Trial 2", "result": 35, "unit": "%"},
      {"measurement": "Emax at 25 g/ha", "setting": "360 h, 15DAA, Trial 1", "result": 64, "unit": "%"},
      {"measurement": "Emax at 25 g/ha", "setting": "360 h, 15DAA, Trial 2", "result": 45, "unit": "%"},
      {"measurement": "Emax at 12.5 g/ha", "setting": "480 h, 20DAA, Trial 1", "result": 39, "unit": "%"},
      {"measurement": "Emax at 12.5 g/ha", "setting": "480 h, 20DAA, Trial 2", "result": 31, "unit": "%"},
      {"measurement": "Emax at 25 g/ha", "setting": "480 h, 20DAA, Trial 1", "result": 42, "unit": "%"},
      {"measurement": "Emax at 25 g/ha", "setting": "480 h, 20DAA, Trial 2", "result": 43, "unit": "%"},
      {"measurement": "Emax at 12.5 g/ha", "setting": "600 h, 25DAA, Trial 1", "result": 29, "unit": "%"},
      {"measurement": "Emax at 12.5 g/ha", "setting": "600 h, 25DAA, Trial 2", "result": 25, "unit": "%"},
      {"measurement": "Emax at 25 g/ha", "setting": "600 h, 25DAA, Trial 1", "result": 31, "unit": "%"},
      {"measurement": "Emax at 25 g/ha", "setting": "600 h, 25DAA, Trial 2", "result": 35, "unit": "%"},
      {"measurement": "Emax at 12.5 g/ha", "setting": "720 h, 30DAA, Trial 1", "result": 22, "unit": "%"},
      {"measurement": "Emax at 12.5 g/ha", "setting": "720 h, 30DAA, Trial 2", "result": 19, "unit": "%"},
      {"measurement": "Emax at 25 g/ha", "setting": "720 h, 30DAA, Trial 1", "result": 26, "unit": "%"},
      {"measurement": "Emax at 25 g/ha", "setting": "720 h, 30DAA, Trial 2", "result": 30, "unit": "%"},
      {"measurement": "Emax at 12.5 g/ha", "setting": "840 h, 35DAA, Trial 1", "result": 14, "unit": "%"},
      {"measurement": "Emax at 12.5 g/ha", "setting": "840 h, 35DAA, Trial 2", "result": 12, "unit": "%"},
      {"measurement": "Emax at 25 g/ha", "setting": "840 h, 35DAA, Trial 1", "result": 26, "unit": "%"},
      {"measurement": "Emax at 25 g/ha", "setting": "840 h, 35DAA, Trial 2", "result": 23, "unit": "%"},
      {"measurement": "Emax at 12.5 g/ha", "setting": "960 h, 40DAA, Trial 1", "result": 5, "unit": "%"},
      {"measurement": "Emax at 12.5 g/ha", "setting": "960 h, 40DAA, Trial 2", "result": 9, "unit": "%"},
      {"measurement": "Emax at 25 g/ha", "setting": "960 h, 40DAA, Trial 1", "result": 5, "unit": "%"},
      {"measurement": "Emax at 25 g/ha", "setting": "960 h, 40DAA, Trial 2", "result": 10, "unit": "%"}
    ]},
    {"smiles": "CNC(=O)c1cc(C#N)cc(C)c1NC(=O)c1cc(Br)nn1-c1ncccc1Cl", "note": "[CYNT, 3-bromo-1-(3-chloro-2-pyridyl)-4′-cyano-2′-methyl-6′-(methylcarbamoyl)pyrazole-5-carboxanilide]", "values": [
      {"measurement": "Emax at 100 g/ha", "setting": "120 h, 5DAA, Trial 1", "result": 79, "unit": "%"},
      {"measurement": "Emax at 100 g/ha", "setting": "120 h, 5DAA, Trial 2", "result": 70, "unit": "%"},
      {"measurement": "Emax at 150 g/ha", "setting": "120 h, 5DAA, Trial 1", "result": 83, "unit": "%"},
      {"measurement": "Emax at 150 g/ha", "setting": "120 h, 5DAA, Trial 2", "result": 76, "unit": "%"},
      {"measurement": "Emax at 100 g/ha", "setting": "240 h, 10DAA, Trial 1", "result": 75, "unit": "%"},
      {"measurement": "Emax at 100 g/ha", "setting": "240 h, 10DAA, Trial 2", "result": 71, "unit": "%"},
      {"measurement": "Emax at 150 g/ha", "setting": "240 h, 10DAA, Trial 1", "result": 75, "unit": "%"},
      {"measurement": "Emax at 150 g/ha", "setting": "240 h, 10DAA, Trial 2", "result": 80, "unit": "%"},
      {"measurement": "Emax at 100 g/ha", "setting": "360 h, 15DAA, Trial 1", "result": 78, "unit": "%"},
      {"measurement": "Emax at 100 g/ha", "setting": "360 h, 15DAA, Trial 2", "result": 76, "unit": "%"},
      {"measurement": "Emax at 150 g/ha", "setting": "360 h, 15DAA, Trial 1", "result": 79, "unit": "%"},
      {"measurement": "Emax at 150 g/ha", "setting": "360 h, 15DAA, Trial 2", "result": 83, "unit": "%"},
      {"measurement": "Emax at 100 g/ha", "setting": "480 h, 20DAA, Trial 1", "result": 72, "unit": "%"},
      {"measurement": "Emax at 100 g/ha", "setting": "480 h, 20DAA, Trial 2", "result": 74, "unit": "%"},
      {"measurement": "Emax at 150 g/ha", "setting": "480 h, 20DAA, Trial 1", "result": 74, "unit": "%"},
      {"measurement": "Emax at 150 g/ha", "setting": "480 h, 20DAA, Trial 2", "result": 82, "unit": "%"},
      {"measurement": "Emax at 100 g/ha", "setting": "600 h, 25DAA, Trial 1", "result": 66, "unit": "%"},
      {"measurement": "Emax at 100 g/ha", "setting": "600 h, 25DAA, Trial 2", "result": 72, "unit": "%"},
      {"measurement": "Emax at 150 g/ha", "setting": "600 h, 25DAA, Trial 1", "result": 69, "unit": "%"},
      {"measurement": "Emax at 150 g/ha", "setting": "600 h, 25DAA, Trial 2", "result": 80, "unit": "%"},
      {"measurement": "Emax at 100 g/ha", "setting": "720 h, 30DAA, Trial 1", "result": 61, "unit": "%"},
      {"measurement": "Emax at 100 g/ha", "setting": "720 h, 30DAA, Trial 2", "result": 65, "unit": "%"},
      {"measurement": "Emax at 150 g/ha", "setting": "720 h, 30DAA, Trial 1", "result": 67, "unit": "%"},
      {"measurement": "Emax at 150 g/ha", "setting": "720 h, 30DAA, Trial 2", "result": 71, "unit": "%"},
      {"measurement": "Emax at 100 g/ha", "setting": "840 h, 35DAA, Trial 1", "result": 53, "unit": "%"},
      {"measurement": "Emax at 100 g/ha", "setting": "840 h, 35DAA, Trial 2", "result": 57, "unit": "%"},
      {"measurement": "Emax at 150 g/ha", "setting": "840 h, 35DAA, Trial 1", "result": 59, "unit": "%"},
      {"measurement": "Emax at 150 g/ha", "setting": "840 h, 35DAA, Trial 2", "result": 62, "unit": "%"},
      {"measurement": "Emax at 100 g/ha", "setting": "960 h, 40DAA, Trial 1", "result": 39, "unit": "%"},
      {"measurement": "Emax at 100 g/ha", "setting": "960 h, 40DAA, Trial 2", "result": 43, "unit": "%"},
      {"measurement": "Emax at 150 g/ha", "setting": "960 h, 40DAA, Trial 1", "result": 45, "unit": "%"},
      {"measurement": "Emax at 150 g/ha", "setting": "960 h, 40DAA, Trial 2", "result": 45, "unit": "%"}
    ]}
  ]
}
